Experimental data as given in patent US20080076751A1, “Azetidinone Derivatives and Methods of Use Thereof” (priority 2006, published 2008).
pIC50: −log10 of the molar value.

Columns and labels:
Assay type in all cases: cell-based
TRPV1 (VR1) [1] = molecular target: T1, TRPV1 (VR1) (Rattus norvegicus, UniProt O35433); test: TRPV1 screening assay (FLIPR, Fluo-4 calcium), PMA stimulation; settings: HEK293-TetOFF-TRPV1, PMA
T1 construct: expressed in transfected cells; host or cells: HEK293-TetOFF, expression induced by withdrawing doxycycline
Method: 2) FLIPR buffer is prepared fresh:
(§1) For assay: • a) Dilute stock by adding 0.8 μL into 1 mL of MeOH (final=80 uM). • b) Add 50 μL of diluted stock to 20 mL of FLIPR buffer (final=0.2 uM) • c) Agonist solution is added 150 μL/well to 96-well plate. • d) Final agonist concentration on cells will be 50 nM. […] Laser is adjusted upwards for an average signal≧10,000/well and less than 10% variability. 7) Compound addition conditions are as follows: • FLIPR setup (dual sequence parameters): • Sequence 1: • First interval 1 sec/60 counts • Second interval 6 sec/50 counts • Fluid addition=50 μL • Pipettor height 110 μL • Dispense Speed=30 μL/sec • Sequence 2: • Second interval 1 sec/60 counts • Second interval 6 sec/40 counts • Fluid addition=50 μL • Pipettor height=140 μL • Dispense Speed=50 μL/sec Data Analysis: • 1) Data from both additions is reported as Max-Min for each well

TRPV1 (VR1) [2] = molecular target: T1, TRPV1 (VR1); test: TRPV1 screening assay (FLIPR, Fluo-4 calcium), capsaicin stimulation; settings: FLIPR, HEK293-TetOFF-TRPV1, capsaicin 50 nM final; read-out: VR1 flipr CAPSAICIN IC50
Text: (§2) • 1) Cell line: HEK293-Tet^OFF-TRPV1 • 2) Media: MEM (Invitrogen) • 3) 10% Tet-FBS (Clontech #8630-1) • 4) Fungizone (Gibe #15290-018 (100X)) • 5) Penn/Strep (Gibco #15140-122 (100X)) • 6) Geneticin (Gibco #10131-027 (100X)) • 7) Hygromycin (Clontech #8057-1) • 8) Doxycycline (Clontech #8634-1) • 9) Trypsin/EDTA (Gibco #25200-056) • 10) 100 mm cell culture plates (Falcon #3003) • 11) 96-well poly-D-lysine plates (Fisher #08-774-256) • 12) Hank's Balanced Salt Solution (HBSS) (GIBCO #14025-092) • 13) HEPES Buffer (GIBCO #15630-080) • 14) 30% BSA (Research Organics #1334A) • 15) Probenecid (Sigma P-8761) • 16) Fluo-4, AM (50 μg) (Molecular Probes F-23917) • 17) Pluronic F-127 20% (Molecular Probes P-3000). • 18) capsazepine (Sigma C-191) • 19) capsaicin (Sigma M-2028) • 20) compound plates (NUNC #442587) • 21) black pipet tips 96-well FLIPR (Robbins Scientific 1043-24-0) • 22) Additional reagents available from Fisher: methanol, DMSO, NaOH Reagent Preparation: 1) Cells: HEK293-Tet^OFF-TRPV11
(§3) • and Doxycycline 2.5 μg/mL final (from a 1000× stock in PBS) • Cells must be fed and/or split every 2-3 days (to maintain transcriptional repression with Doxycycline). • Must be split no more than 1:5 (50-75% confluency) to maintain growth and viability. • Grown on regular tissue culture plates (e.g Falcon 3003-100 mm) • Split cells via Trypsin/EDTA: incubate with trypsin at room temperature no longer than 5 minutes (HEK293 cells have a tendency to ball up if over trypsinized). • Two days prior to assay, the cells are split into 96-well plates in cell media in the absence of doxycycline at a concentration of 40,000 cells/well in a volume of 200 μL. 2) FLIPR buffer is prepared fresh:
Add 5 mL of Probenecid Solution, prepared as follows: 710 mg of probenecid (Sigma P-8761) is solubilized in 5 mL of 1N NaOH, 5 mL of above buffer is added for final volume of 10 mL. (of which 5 mL goes back into FLIPR buffer)
Combine 42 μL of dye mixture with 11 mL of FLIPR buffer/96-well plate.
Stock solution of 0.1 M capsaicin is prepared in MeOH (50 mg+1.6 mL MeOH). Store 50 μL aliquots at −80° C.
as §1

human-SP9215 (GPR119) = molecular target: T2, human-SP9215 (GPR119) (Homo sapiens, UniProt Q8TDV5); test: GPR119 screening assay (LANCE cAMP, HEK 293 Human clone 3); settings: HEK 293 Human clone 3, LANCE cAMP; read-out: GPR119 cAMP IC5O
T2 construct: expressed in transfected cells
T2 sequence (Q8TDV5 1-335): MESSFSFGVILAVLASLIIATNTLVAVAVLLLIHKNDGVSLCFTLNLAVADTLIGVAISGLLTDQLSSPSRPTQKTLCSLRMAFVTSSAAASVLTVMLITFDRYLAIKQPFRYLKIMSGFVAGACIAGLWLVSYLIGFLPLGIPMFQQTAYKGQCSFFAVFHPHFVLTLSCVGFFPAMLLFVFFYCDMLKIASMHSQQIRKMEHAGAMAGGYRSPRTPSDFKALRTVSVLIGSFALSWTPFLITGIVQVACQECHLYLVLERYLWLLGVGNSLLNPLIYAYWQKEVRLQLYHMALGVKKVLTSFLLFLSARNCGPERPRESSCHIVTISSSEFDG
Method: • +100 mg BSA (MP Biomedicals faction V, #103703)=0.1% • +500 μL 1M HEPES (Cellgro #25-060-Cl)=5 mM • +75 μL RO-20 (Sigma B8279; 20 mM stock in DMSO stored in aliquots at −20° C.)=15 μM • (made fresh daily) B84 (N-[4-(methylsulfonyl)phenyl]-5-nitro-6-[4-(phenylthio)-1-piperidinyl]-4-pyrimidinamine, see WO 2004/065380): A 10 mM stock solution of the test compound in DMSO was prepared, aliquoted and stored at −20° C. For Totals—Dilute 1:33.3 in DMSO then 1:50 in Stimulation Buffer=6 μM in 2% DMSO (=3 μM B84 and 1% DMSO final). For Dose Response Curve -3 μL stock+7 μL DMSO+490 μL Stim Buffer=60 μM in 2% DMSO (=30 μM B84 and 1% DMSO final). (made fresh daily). Cell Line Human clone 3: HEK 293 cells stable transfected with human-SP9215 (GPR119)/pcDNA3.1 and also stable for pCRELuc, Stratagene. Cells are maintained in DMEM containing 10% FBS (Invitrogen #02-4006Dk, lot #1272302, heat inactivated), 1×MEM, 1× Pen/Strep, 0.1 mg/mL Hygromycin B, and 0.5 mg/mL G418. Cells are split 1:8 twice per week. cAMP Kit: LANCE™ cAMP 384 kit, Perkin Elmer #AD0263 Compound Dilutions • 1. Add DMSO to vials containing compounds to provide a 1 mg/mL solution. • 2. Dilute compounds to 60 μM in Stimulation buffer. Make ½ log dilutions into stimulation buffer containing 2% DMSO using the epMotion robot. 10 point dose response curve 1 nM to 30 μM. • 3. Compounds are run in quadruplicate, 2 separate dilutions for each, sets 1 and 1a. Assay Procedure • 1. The afternoon before the assay, replace the media in the flask of Human clone 3 cells with Optimem. (Gibco # 11058-021) NOTE: cells should be in culture 6-8 days. • 2. Next morning, pipet the cells gently off the flask using HBSS (at room temperature). • 3. Pellet the cells (1300 rpm, 7 minutes, room temperature) and resuspend in Stimulation Buffer at 2.5×10e6/mL (=5-8,000 cell/6 μL). Add 1:100 dilution of Alexa Fluor 647-anti cAMP antibody (provided in the kit) directly to the cell suspension. • 4. Into white 384-well plates (Matrix) add 6 μL of 2×B84, cmpds or stim buffer for nsb. They all contain 2% DMSO (=1% DMSO final). • Add 6 μL of the cell suspension to the wells. Incubate 30 minutes at room temperature. • For the std curve add 6 μL cAMP std solution diluted in Stim Buffer+2% DMSO according to kit directions (1000-3 nM). Add 6 μL of 1:100 anti-cAMP dilution in Stim Buffer to std wells. • Make Detection Mix according to kit instructions and incubate 15 minutes at room temperature. • Add 12 μL Detection Mix to all the wells.

rat VR1 = molecular target: T3, rat VR1 (Rattus norvegicus, UniProt O35433); test: TRPV1 screening assay (FLIPR), rat VR1 % activation at single concentration
T3 construct: expressed in transfected cells; host or cells: HEK293-TetOFF
Text: as §2, §3
For assay: • a) Dilute stock by adding 0.8 μL into 1 mL of MeOH (final=80 uM). • b) Add 50 μL of diluted stock to 20 mL of FLIPR buffer (final=0.2 uM) • c) Agonist solution is added 150 μL/well to 96-well plate. • d) Final agonist concentration on cells will be 50 nM. (˜EC80) 6) Compound Plate preparation: • a) Compound plate is filled with 150 μL/well of FLIPR buffer • b) 3 μL of compound mixtures (1 mg/mL) is added to each well (represents a 3× solution and final DMSO=0.67%) Assay Procedure: • 1) Media is removed from cells grown in 96-well dishes. • 2) 100 μL of Fluo-4 containing FLIPR buffer in pipetted into each well. • 3) Plates are incubated for 30-60 minutes at 37° C. in 5% CO2 incubator. • 4) Plates are then washed three times with 100 μL of FLIPR buffer. • 5) 100 μL of FLIPR buffer is left in each well and plate is incubated at 37° C. for at least 20 minutes. • 6) Signal of dye-labeled plate is initially determined using laser at 0.300 W with an exposure time of 0.4 seconds. Laser is adjusted upwards for an average signal≧10,000/well and less than 10% variability. 7) Compound addition conditions are as follows: • FLIPR setup (dual sequence parameters): • Sequence 1: • First interval 1 sec/60 counts • Second interval 6 sec/50 counts • Fluid addition=50 μL • Pipettor height 110 μL • Dispense Speed=30 μL/sec • Sequence 2: • Second interval 1 sec/60 counts • Second interval 6 sec/40 counts • Fluid addition=50 μL • Pipettor height=140 μL • Dispense Speed=50 μL/sec Data Analysis: • 1) Data from both additions is reported as Max-Min for each well

T3 sequence (O35433 whole entry): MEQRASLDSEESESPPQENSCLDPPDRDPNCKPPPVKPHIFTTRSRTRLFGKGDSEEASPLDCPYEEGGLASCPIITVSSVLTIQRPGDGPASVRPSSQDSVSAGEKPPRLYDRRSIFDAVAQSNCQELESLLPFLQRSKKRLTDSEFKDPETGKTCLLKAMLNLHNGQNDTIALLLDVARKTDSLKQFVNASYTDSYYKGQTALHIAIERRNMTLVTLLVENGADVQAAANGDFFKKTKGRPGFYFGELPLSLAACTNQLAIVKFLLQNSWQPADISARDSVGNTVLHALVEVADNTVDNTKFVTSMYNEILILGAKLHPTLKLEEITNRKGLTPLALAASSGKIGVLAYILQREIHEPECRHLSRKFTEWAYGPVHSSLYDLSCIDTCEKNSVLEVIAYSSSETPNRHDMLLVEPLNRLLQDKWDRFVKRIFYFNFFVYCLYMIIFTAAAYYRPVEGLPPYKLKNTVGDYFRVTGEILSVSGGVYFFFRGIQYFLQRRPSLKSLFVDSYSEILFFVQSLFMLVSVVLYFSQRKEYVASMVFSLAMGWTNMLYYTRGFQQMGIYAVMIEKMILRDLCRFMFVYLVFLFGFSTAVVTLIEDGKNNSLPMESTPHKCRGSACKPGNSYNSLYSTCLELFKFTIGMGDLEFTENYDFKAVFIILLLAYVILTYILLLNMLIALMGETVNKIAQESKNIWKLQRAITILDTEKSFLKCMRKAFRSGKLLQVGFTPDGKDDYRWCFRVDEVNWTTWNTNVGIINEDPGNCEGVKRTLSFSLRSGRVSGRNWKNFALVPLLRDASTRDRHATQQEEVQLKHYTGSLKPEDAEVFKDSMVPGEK
T1 sequence (O35433 whole entry): as above

SMILES	pIC50 (TRPV1 (VR1) [1])	pIC50 (TRPV1 (VR1) [2])	pIC50 (human-SP9215 (GPR119))	rat VR1 % activation @ 3.3 ug/ml compound (rat VR1)
COC(=O)c1ccc(N2C(=O)C3(CCN(C(=O)c4cc(OC)c(OC)c(OC)c4)CC3)C2c2ccc(Cl)cc2)cc1 (stereo not shown)	–	–	5.57	–
CC(C)(C)C1CCC(NC(=O)N2CCC3(CC2)C(=O)N(c2ccccc2)C3c2ccccc2)CC1 (single isomer, unassigned)	7.51	7.32	–	–
COc1cc(C(=O)N2CCC3(CC2)C(=O)N(c2ccc(F)cc2)C3c2ccc(Cl)cc2)cc(OC)c1OC (stereo not shown)	–	–	5.36	–
O=C(c1ccc2c(c1)OCCCO2)N1CCC2(CC1)C(=O)N(c1ccc(C(F)(F)F)cc1)C2c1ccc(Cl)cc1 (stereo not shown)	–	–	5.35	–
CC(C)(C)C1CCC(NC(=O)N2CCC3(CC2)CN(c2ccccc2)C3=O)CC1 (single isomer, unassigned)	6.91	7.08	–	–
CC(C)OC(=O)N1CCC2(CC1)C(=O)N(C(c1ccccc1)c1ccccc1)C2c1ccccc1 (stereo not shown)	–	–	5.70	–
O=C(c1ccc2c(c1)OCCCO2)N1CCC2(CC1)C(=O)N(c1ccc([N+](=O)O)cc1)C2c1ccc(Cl)cc1 (stereo not shown)	–	–	5.38	–
COc1cccc(N2C(=O)C3(CCN(C(=O)c4cc(OC)c(OC)c(OC)c4)CC3)C2c2ccc(Cl)cc2)c1 (stereo not shown)	–	–	5.42	–
CC(C)c1ccc(NC(=O)N2CCC3(CC2)CN(c2ccccc2)C3=O)cc1	8.30	6.30	–	–
N#Cc1ccc(N2C(=O)C3(CCN(C(=O)c4ccc5c(c4)OCCCO5)CC3)C2c2ccc(Cl)cc2)cc1 (stereo not shown)	–	–	5.64	–
COC(=O)c1ccc(N2C(=O)C3(CCN(C(=O)c4ccc5c(c4)OCCCO5)CC3)C2c2ccc(Cl)cc2)cc1 (stereo not shown)	–	–	6.00	–

The next lines start with the values.

pIC50 (TRPV1 (VR1) [1])	pIC50 (TRPV1 (VR1) [2])	pIC50 (human-SP9215 (GPR119))	rat VR1 % activation @ 3.3 ug/ml compound (rat VR1)	SMILES
7.92	8.05	–	–	CC(C)(C)c1ccc(NC(=O)N2CCC3(CC2)C(=O)N(c2ccccc2)C3c2ccccc2)cc1 (single isomer, unassigned)
7.09	7.01	–	–	CCC(C)c1ccc(NC(=O)N2CCC3(CC2)C(=O)N(c2ccccc2)C3c2ccccc2)cc1 (stereo not shown)
–	–	–	67%	N#Cc1cc(F)cc(NC(=O)N2CCC3(CC2)C(=O)N(c2ccc(F)c(Cl)c2)C3c2ccccn2)c1 (stereo not shown) [drawing 662]
–	–	–	61%	N#Cc1cccc(N2C(=O)C3(CCN(C(=O)Nc4cccc(C(F)(F)F)c4)CC3)C2c2ccccn2)c1 (stereo not shown) [drawing 663]
–	–	–	98%	O=C(Nc1cccc(C(F)(F)F)c1)N1CCC2(CC1)C(=O)N(c1ccc(F)c(Cl)c1)C2c1ccccn1 (stereo not shown) [drawing 660]
–	–	5.36	–	COc1cc(C(=O)N2CCC3(CC2)C(=O)N(c2cccc(C(F)(F)F)c2)C3c2ccc(Cl)cc2)cc(OC)c1OC (stereo not shown)
8.15	8.15	–	–	O=C(Nc1ccc(C(F)(F)F)cc1)N1CCC2(CC1)C(=O)N(c1ccccn1)C2c1ccccc1 (single isomer, unassigned)
7.23	7.10	–	–	CC(C)(C)c1ccc(NC(=O)N2CCC3(CC2)CN(c2ccccc2)C3=O)cc1
6.69	6.50	–	–	O=C(Nc1ccc(C(F)(F)F)cn1)N1CCC2(CC1)C(=O)N(c1ccccc1)C2c1ccccc1 (stereo not shown)
7.80	7.70	–	–	O=C(Nc1ccc(C(F)(F)F)cc1)N1CCC2(CC1)C(=O)N(c1ccccn1)C2c1ccccc1 (stereo not shown)
–	–	5.33	–	C[C@H](NC(=O)N1CCC2(CC1)C(=O)N(c1ccc(F)cc1)C2c1ccc(F)cc1)c1ccccc1 (stereo partly shown)
